Laboratory results as given in patent US5366992A, “Benzoic acid substituted derivatives having cardiovascular activity” (Italfarmaco S.p.A., priority 1990, dated 1994).
Structures can show the parent of a compound that is named as a salt.

Columns and labels:
[1] = tested on: noradrenaline-contracted rat aortha strip; assay: in vitro vasorelaxing activity, noradrenaline-contracted rat aortha strip; conditions: concentration inhibiting by 50% the contraction of noradrenaline-contracted rat aortha strip
Experimental: The in vitro vasorelaxing activity of the compounds of the present invention was evaluated in the test of the noradrenaline-contracted rat aortha strip. The test was carried out according to the procedure described by K. Murakami et al., Eur. J. Pharmacol., 141, 195, 1987. The IC50 values, i.e. the concentration of active substance, expressed in mol/1, inhibiting by 50% the aortha strip contraction, were evaluated.

[2] = tested on: Sprague Dawley anesthetized rats; assay: in vivo antianginal activity, Arg-vasopressin-induced coronaric spasm (T wave increase) in anesthetized rats; design: species or system Sprague Dawley rat; conditions: 3 mg/kg through gastric probe, one hour before i.v. Arg-vasopressin (1 I.U./kg)
Experimental: In vivo antianginal activity was evaluated in Sprague Dawley anesthetized rats of 350-400 g mean weight, according to the procedure by M. Leitold et al., Arzneim. Forsch. 36, 1454, 1986. The test was carried out by intravenously administering to the animal one I.U./kg (equivalent to 3 mg/kg) of Arg-vasoprexine inducing a choronaric spasm which can be reproduced and electrocardiographically evidenced by an increase in the T wave. The compounds of the invention were administered through a gastric probe at a dose of 3 mg/kg, one hour before administering Arg-vasoprexine.The antianginal effect was expressed as percent inhibition of the increase in T wave versus controls.

SMILES: O=C(NCCO[N+](=O)[O-])c1ccccc1OC(=O)C1CSCN1 (centres unmarked) [Example 9, N-(2-Nitroxyethyl)-2-[(4-thiazolidinyl)carbonyloxy]benzamide hydrochloride]
- IC50 [1]: 540 nM

SMILES: CC(=O)Oc1cccc(C(=O)NCCCCCO[N+](=O)[O-])c1 [3 B]
- IC50 [1]: 1200 nM

SMILES: CC(=O)Oc1cccc(C(=O)NCCO[N+](=O)[O-])c1 [Example 1, 3-Acetoxy-N-(2-nitroxyethyl)-benzamide]
- IC50 [1]: 160 nM

SMILES: CC(=O)Oc1ccccc1C(=O)NCCCCCO[N+](=O)[O-] [4 B]
- IC50 [1]: 110 nM
- % Inhibition of the increase in T waves versus controls [2]: 53%

SMILES: O=C(NCCO[N+](=O)[O-])c1ccccc1O [9 A]
- IC50 [1]: 160 nM
- % Inhibition of the increase in T waves versus controls [2]: 42%

SMILES: CC(=O)Oc1ccccc1C(=O)OCCO[N+](=O)[O-] [8 B]
- IC50 [1]: 13 nM
- % Inhibition of the increase in T waves versus controls [2]: 61%

SMILES: CC(=O)Oc1ccc(C(=O)NCCO[N+](=O)[O-])cc1 [Example 2, 4-Acetoxy-N-(2-nitroxyethyl)-benzamide]
- IC50 [1]: 2300 nM
- % Inhibition of the increase in T waves versus controls [2]: 55%
